# According to US20220145264A1, “CULTURE MEDIUM FOR MAMMALIAN EXPANDED POTENTIAL STEM CELLS, COMPOSITION, AND METHODS THEREOF” (THE UNIVERSITY OF HONG KONG, priority 2019, published 2022):
# Key:
# AXIN1 [1] = assay: Western blot analysis of AXIN1 in human EPSCs; format: cell-based
# Procedure: (§1) Whole-cell extracts were prepared from cells with indicated treatments in lysis buffer composed of 50 mM Tris-HCl (pH 7.5), 0.15M NaCl, 0.1% SDS, 1% Triton X-100, 1% sodium deoxycholate and complete mini EDTA free protease inhibitor cocktail (Roche Applied Science, Cat. No. 11836170001). The cells for the experiment were collected from the same batch of culture when the culture had reached 70-80% confluence. The biological replicates were included to allow the meaningful conclusions. 10 μg protein were used for electrophoresis and transferred to nitrocellulose membranes. Membranes were blocked with 5% milk and treated with antibodies. Primary antibodies of mouse or rabbit anti AXIN1, SMAD2/3, p-SMAD2/3 and ALPHA-TUBULIN were used. Horseradish peroxidase-conjugated secondary antibodies against rabbit or mouse IgG were added. After antibody treatment, blots were developed using ECL Western Blotting Detection System (Thermo Fisher Scientific, Cat. No. 32106). The antibodies used in these experiments is provided in Supplementary Table 9.
# canonical Wnt signalling [2] = assay: TOPflash luciferase assay in porcine EPSCs; format: cell-based
# Procedure: (§2) For the TOPflash assay, 2.0×10^6 cells were transfected with 10 μg TOPflash plasmid. 5 μg pRL-TK (Renilla) vectors were also transfected for normalization. Cells were split 1:9 into a 24-well plate in pEPSCM and hEPSCM with or without XAV939 (WNTi, 2.5 μM, Cat. No. X3004) for 48 h. Cell lysates were collected for luciferase assays. For determining the regulation pattern of Oct4 expression in porcine EPSCs, 10 μg reporter constructs were electroporated into 1.5×10^6 pEPSCs with 5 μg pRL-TK. Assays were performed 48 h later. All luciferase assays were performed using the Dual-Glo Luciferase Assay System (Promega, Cat. No. E2920).
# AXIN1 [3] = assay: Western blot analysis of AXIN1 in porcine EPSCs; format: cell-based
# Procedure: as §1
# H1-EPSCs = assay: Requirement of individual culture components for hEPSCs (RT-qPCR, AP+ colony formation); format: cell-based, human; details: withdrawal from medium, human EPSCs
# Procedure: (§3) Porcine and human EPSC cultures were routinely maintained on STO feeders. STO feeder plates were prepared 3-4 days before passaging by thawing and plating the mitomycin C inactivated STO cells on 0.1% gelatinised plates at the density of ˜1.1×10^4 cells/cm^2. Porcine/human EPSC cells were maintained on STO feeder layers and enzymatically passaged every 3-5 days by a brief PBS wash followed by treatment for 3-5 minutes with 0.25% trypsin/EDTA (Gibco, Cat. No. 25500-054). The cells were dissociated and centrifuged (300 g×5 minutes) in M10 medium. M10: knockout DMEM (Gibco, Cat. No. 10829-018), 10% FBS (Gibco, Cat. No. 10270), 1× Glutamine Penicillin-Streptomycin (Thermo Fisher Scientific, Cat. No. 11140050) and 1×NEAA (Thermo Fisher Scientific, Cat. No. 10378-016). After removing supernatant, the porcine/human EPSCs were re-suspended and seeded in pEPSCM/hEPSCM supplemented with 5 μM ROCK inhibitor Y-27632 (Tocris, Cat. No. 1254). 5% FBS (Gibco, Cat. No. 10270) and 10% KnockOut Serum Replacement (KSR) (Gibco, Cat. No. 10828028) were added in pEPSCM and hEPSCM respectively to improve cells survive. 12-24 hours later, medium was switched to pEPSCM/hEPSCM only. Both pEPSCM and hEPSCM are N2B27 based media. N2B27 basal media (500 ml) was prepared by inclusion of the following components: 482.5 ml DMEM/F-12 (Gibco, Cat. No. 21331-020), 2.5 ml N2 supplement (Thermo Fisher Scientific, Cat. No. 17502048), 5 ml B27 supplement (Thermo Fisher Scientific, Cat. No. 17504044), 5 ml 1× Glutamine Penicillin-Streptomycin (Thermo Fisher Scientific, Cat. No. 11140-050), and 5 ml 1×NEAA (Thermo Fisher Scientific, Cat. No. 10378-016), 0.1 mM 2-mercaptoethanol (Sigma, Cat. No. M6250). pEPSCM (500 ml) was generated by adding the following small molecules and cytokines into 500 ml N2B27 basal media: 0.2 μM CHIR99021(GSK3i, TOCRIS, Cat. No. 4423), 1 μM WH-4-023 (SRC inhibitor, TOCRIS, Cat. No. 5413), 2.5 μM XAV939 (Sigma, Cat. No. X3004) or 2.5 μM IWR-1 (TOCRIS, Cat. No. 3532), […] Vitamin C (Sigma, Cat. No. 49752-100G), 10 ng/ml LIF (Stem Cell Institute, University of Cambridge. SCI) and 20 ng/ml ACTIVIN (SCI). hEPSCM (500 ml) was generated by adding the following components into 500 ml N2B27 basal media: 1.0 μM CHIR99021(GSK3 inhibitor, TOCRIS, Cat. No. 4423), 0.5 μM A-419259 (SRC inhibitor, TOCRIS, Cat. No. 3914), 2.5 μM XAV939 (Sigma, Cat. No. X3004), […] Vitamin C (Sigma, Cat. No. 49752-100G), 10 ng/ml LIF (SCI). Although both targeting SRC family kinases (SFKs), WH-4-023 and A419259 were preferred for porcine and human EPSCs, respectively. […] The concentrations of CHIR99021 for porcine and human EPSC cultures are 0.2 μM and 1.0 μM, respectively. […] 0.25 μM SB 590885 (BRAF inhibitor, R&D, Cat. No. 2650) and 2.0 μM SP600125 ([…], TOCRIS, Cat. No. 1496) were included to improve porcine and human EPSC cultures, but they were not essential for the routine maintenance of porcine and human EPSCs. All cell cultures in this paper were performed under conditions of 37° C. and 5% CO2 unless stated otherwise.
# (§4) Total RNA was isolated using an RNeasy Mini Kit (Qiagen, Cat. No. 74106) for cultured cells or RNeasy Micro Kit (Qiagen, Cat. No. 74034) for sorted NANOS3-mCherry^+ cells. RNA was subsequently quantified and treated with gDNA WipeOut to remove genomic DNA. Complementary DNA (cDNA) was prepared using a QuantiTect Reverse Transcription Kit (Qiagen, Cat. No. 205311). RT-qPCR primers or TaqMan Gene Expression Assays (Life Technologies) are listed in Supplementary Table 10 and 11. ABsolute Blue qPCR ROX Mix (ABgene, Cat. No. AB4138B) were used for probe based qPCR assays and SYBR Green ROX qPCR Mastermix (Qiagen, Cat. No. 330523) were used for primer based qPCR assays. All qPCR reactions were performed on ABI 7900 HT Sequence Detection System (Life Technologies). Information on all primers and probes used for qPCR analysis are provided in Supplementary Table 10 and 11. Gene expression was determined relative to GAPDH using the […]. […]
# canonical Wnt signalling [4] = assay: TOPflash luciferase assay in human EPSCs; format: cell-based
# Procedure: as §2
# pEPSCs^Emb = assay: Requirement of individual culture components for pEPSCs (RT-qPCR, AP+ colony formation); format: cell-based, porcine; details: withdrawal from medium, porcine EPSCs
# Procedure: as §3, §4
# [5] = system: Dox-dependent porcine iPSCs; assay: Dox removal from Dox-dependent porcine iPSCs; format: cell-based; details: upon Dox removal
# Procedure: Germany Landrace and China TAIHU OCT4-TD-tomato [2] Porcine fetal fibroblasts (PFFs) were plated on gelatinized 15-cm tissue culture plates and cultured in M20 media. They were trypsinized with 0.25% trypsin/EDTA solution (Gibco, Cat. No. 25500-054) and harvested for electroporation at 80% confluence. M20: knockout DMEM (Gibco, Cat. No. 10829-018), 20% FBS (Gibco, Cat. No. 10270), 1× Glutamine Penicillin-Streptomycin (Thermo Fisher Scientific, Cat. No. 11140-050) and 1×NEAA (Thermo Fisher Scientific, Cat. No. 10378-016). The transfections were performed using an Amaxa Nucleofector machine (Lonza) according to the manufacturer's protocol (NHDF Nucleofector® Kit, Cat. No. VPD-1001, program U-20). piggyBac transposition was used to achieve stable integration of reprogramming factors. The expression of the reprogramming factors was under the transcriptional control of the tetO2 tetracycline/doxycycline inducible promoter. 1.5 million PFFs and 6.0 μg DNA (2.0 μg PB-TRE-pOSCK, Porcine OCT4, SOX2, cMYC and KLF4; 1.0 μg PB-TRE-pNhL, 1.0 μg PB-TRE-hRL: human RARG and TRH1, 1.0 μg PB-EF1a-transposase and 1.0 μg PB-EF1a-rTTA) were used in each electroporation reaction. PB-TRE-pOSCK: cDNAs of porcine OCT4, SOX2, cMYC and KLF4 linked by 2A sequence were expressed as a single transcript from the tetO2 promoter. […]
Structure (SMILES),AXIN1 protein content (AXIN1 [1]),canonical WNT activities (canonical Wnt signalling [2]; porcine EPSCs),TOPflash activity (canonical Wnt signalling [2]; removing XAV939 from pEPSCM for 5 days),AXIN1 protein content (AXIN1 [3]),state of EPSCs on withdrawal of the compound (H1-EPSCs),canonical WNT activities (canonical Wnt signalling [4]; human EPSCs),TOPflash activity (canonical Wnt signalling [4]; removing XAV939 from hEPSCM for 5 days),state of EPSCs on withdrawal of the compound (pEPSCs^Emb),time to differentiation of iPSCs [5] [days]
Oc1nc(-c2ccc(C(F)(F)F)cc2)nc2c1CSCC2 [XAV939],enhanced,reduced,substantially increased,enhanced,collapse and differentiation,reduced,substantially increased,collapse and differentiation,–
"C[C@H]1c2cccc(O)c2C(=O)C2=C(O)[C@]3(O)C(=O)C(C(N)=O)=C(O)[C@@H](N(C)C)[C@@H]3[C@@H](O)[C@@H]21 [Dox, Doxycycline]",–,–,–,–,–,–,–,–,4 to 5
